Positions of bridges follow the written chain, without caps; N, C: chain ends. Residues, ends and D or L forms follow the SMILES beside them. No end group written: not given here.
How the values were obtained:
[1] = tested on: human zona-free oocytes and spermatozoa; type: cell-based
Experimental: (§1) Patients donated said oocytes for research purposes and signed a consent form approved by the Institutional Review Board of the Aulnay-sous-Bois hospital.
These oocytes aged 48 hours or matured in vitro were not or were no longer capable of producing an embryo. Moreover, the polyspermy blocking mechanism which ensures that the embryo will be diploid is located in the zona pellucida of the oocyte. By removing the zona pellucida of these oocytes, this protective mechanism is abolished, leading to nonviable polyspermic zygotes in the event of gamete fusion. Finally, as embryo development occurs inside the zona pellucida for the first six days, the absence of the latter precludes said development from taking place.
(§2) To maintain the oocyte membrane as close as possible to its natural state, the inventors removed the zona pellucida mechanically with microsurgical scissors.
Sperm from fertile donors was collected after three days of abstinence and prepared as for IVF. […]
Functional tests of inhibition of fusion were carried out in conditions similar to those used for IVF, that is, in conditions sufficiently close to physiological conditions since they enable pregnancy and fetuses. […] The slides were analyzed under a Zeiss Axiophot microscope equipped with a camera connected to Imaging System Package image analysis software (Applied Imaging, Newcastle-upon-Tyne, UK). […]

human oocyte membrane = assay: Detection of biotinylated FEEc peptide at the surface of human oocytes (immunofluorescence, confocal microscopy); type: binding; details: 200 μM biotinylated peptide, 45 minutes, FIG. 1
Experimental: as §1, §2
The oocytes were incubated with 200 μM biotinylated FEEc peptide for 45 minutes.
The zona pellucida was mechanically removed from the oocytes which were then incubated for 45 minutes with […] biotinylated peptide. The FEEc peptide was detected with a mouse anti-biotin antibody recognized by a biotinylated anti-mouse immunoglobulin antibody then by streptavidin-FITC. The oocytes were then mounted in immunomount between the coverslip and the slide and examined under a confocal microscope, B: superimposition of sections corresponding to a hemi-oocyte.

Compound	toxic effect on oocytes [1]	labelling of the oocyte membrane with the peptide (human oocyte membrane)
N[C@H]1CSSC[C@@H](C(=O)O)NC(=O)[C@H](CCC(=O)O)NC(=O)[C@H](CCC(=O)O)NC(=O)[C@H](Cc2ccccc2)NC(=O)[C@H](CO)NC1=O [FEEc, CSFEEC] (H-CSFEEC-OH; disulfide 1-6)	no toxic effect on oocytes	
biotinylated FEEc: FEEc cyclic peptide labelled with biotin for detection on oocytes (CSFEEC; disulfide 1-6 (inferred); also: biotinylated (position not given here))		labelling of the membrane

From patent publication US9238807B2, “Peptide increasing fusiogenic capacity of a gamete” (UNIVERSITE PARIS 13, priority 2003, dated 2016)
